Results reported in patent US6893846B2, “Primers for use in detecting beta-lactamases” (priority 1998, dated 2005).

Legend:
[1] = system: K. pneumoniae and A. hydrophila wound infection; conditions: one patient, intravenous, after four weeks of therapy
[2] = system: SHV and TEM genes; assay: PCR amplification with TEM and SHV primers; design: species or system Escherichia coli
Experimental: (§1) The organisms were inoculated into 5 ml of Luria Bertani (LB) broth (Difco, Detroit, Mich.) and incubated for 20 hours at 37° C. with shaking. Cells from 1.5 ml of overnight culture were harvested by centrifugation at 17,310×g in an Hermle centrifuge for 5 minutes. After the supernatant was decanted, the pellet was resuspended in 500 μl of distilled water. The cells were lysed by heating at 95° C. for 10 minutes and cellular debris was removed by centrifugation for 5 minutes at 17,310×g. The supernatant was used as source of template for amplification.
(§2) The following oligonucleotide primers specific for the SHV and TEM genes were designed by using MacVector version 4.5 (Kodak/IBI): SHV genes: A [5′-([…])-3′] (SEQ ID NO:10) and B [5′-([…])-3′] (SEQ ID NO:11) corresponding to nucleotide numbers 103 to 121 and 988 to 970, respectively, of Mercier et al., Antibicrob. Agents Chemother. 34:1577-1583 (1990)); TEM genes: C [5′-([…])-3′ (SEQ ID NO:5) and D [5′-([…])-3′ (SEQ ID NO:1) corresponding to nucleotide numbers 90 to 105 and 1062 to 1042, respectively, of Sutcliff et al., Proc. Nat. Aca. Sci. USA, 75:3737-3741 (1978). Primers A and B amplified a 885 base pair fragment while primers C and D amplified a 971 base pair fragment. The specificity of the SHV and TEM primers for amplification of SHV and TEM genes respectively was tested by using the following beta-lactamase controls; TEM-I (pACYC177), MIR-1 (from K. pneumoniae96D) and SHV-7 (pCLL3410).
PCR amplifications were carried out on a DNA Thermal Cycler 480 instrument (Perkin-Elmer, Cetus, Norwalk, Conn.) using the Gene Amp DNA amplification kit containing AmpliTaq polymerase (Perkin Elmer, Roche Molecular Systems, Inc., Branchburg, N.J.). The composition of the reaction mixture was as follows: 10 mM Tris-HCl (pH 8.3), 50 mM KCl, 0.1% TRITON X-100, 1.5 mM MgCl2, 0.2 mM (each) of the four deoxynucleoside triphosphates, and 1.2 U of AmpliTaq in a total volume of 49 μl. A total of 1 μl of sample lysate was added to the reaction mixture, and was centrifuged briefly before […] of mineral oil was layered on the surface. The PCR program consisted of an initial denaturation step at 96° C. for 15 seconds; followed by 24 cycles of DNA denaturation at 96° C. for 15 seconds, primer annealing at 50° C. for 15 seconds and primer extension at 72° C. for 2 minutes. After the last cycle the products were stored at 4° C. The PCR products (1/10 volume) were analyzed by electrophoresis using 1.4% agarose gels in TAE buffer (0.04 M Tris-acetate, 0.002 M EDTA [pH 8.5]). The gels were stained with ethidium bromide and the PCR products were visualized with ultra-violet light. […]

[3] = system: SHV and TEM genes; assay: PCR amplification with TEM and SHV primers; design: species or system Proteus mirabilis; conditions: P. mirabilis Pit 85 (pI 5.6, TEM-26-type)
Experimental: as §1
The following oligonucleotide primers specific for the SHV and TEM genes were designed by using MacVector version 4.5 (Kodak/IBI): SHV genes: A [5′-([…])-3′] (SEQ ID NO:10) and B [5′-([…])-3′] (SEQ ID NO:11) corresponding to nucleotide numbers 103 to 121 and 988 to 970, respectively, of Mercier et al., Antibicrob. Agents Chemother. […]
PCR amplifications were carried out on a DNA Thermal Cycler 480 instrument (Perkin-Elmer, Cetus, Norwalk, Conn.) using the Gene Amp DNA amplification kit containing AmpliTaq polymerase (Perkin Elmer, Roche Molecular Systems, Inc., Branchburg, N.J.). […] The PCR products (1/10 volume) were analyzed by electrophoresis using 1.4% agarose gels in TAE buffer (0.04 M Tris-acetate, 0.002 M EDTA [pH 8.5]). […]

[4] = system: SHV and TEM genes; assay: PCR amplification with TEM and SHV primers; design: species or system Klebsiella pneumoniae
Experimental: as §1, §2
PCR amplifications were carried out on a DNA Thermal Cycler 480 instrument (Perkin-Elmer, Cetus, Norwalk, Conn.) using the Gene Amp DNA amplification kit containing AmpliTaq polymerase (Perkin Elmer, Roche Molecular Systems, Inc., Branchburg, N.J.). The composition of the reaction mixture was as follows: 10 mM Tris-HCl (pH 8.3), 50 mM KCl, 0.1% TRITON X-100, 1.5 mM MgCl2, 0.2 mM (each) of the four deoxynucleoside triphosphates, and 1.2 U of AmpliTaq in a total volume of 49 μl. A total of 1 μl of sample lysate was added to the reaction mixture, and was centrifuged briefly before […] of mineral oil was layered on the surface. The PCR program consisted of an initial denaturation step at 96° C. for 15 seconds; followed by 24 cycles of DNA denaturation at 96° C. for 15 seconds, primer annealing at 50° C. for 15 seconds and primer extension at 72° C. for 2 minutes. After the last cycle the products were stored at 4° C. The PCR products (1/10 volume) were analyzed by electrophoresis using 1.4% agarose gels in TAE buffer (0.04 M Tris-acetate, 0.002 M EDTA [pH 8.5]). The gels were stained with ethidium bromide and the PCR products were visualized with ultra-violet light. […] The larger product which corresponded to the expected size of the SHV specific product was gel purified using a 1.4% agarose in TAE gel and the purified PCR product was used for sequence analysis.

Row | Substance | clinical outcome of therapy [1] | Amplification with primers ([2]; E. coli Pit 56 (pI 7.6, SHV-2)) | Amplification with primers ([2]; E. coli Pit 64 (pI 5.6, TEM-26-type)) | Amplification with primers [3] | Amplification with primers ([4]; K. pneumoniae Pit 16 (pI 5.6, TEM-26-type)) | Amplification with primers ([4]; K. pneumoniae Pit 82 (pI 8.2, SHV-5)) | Amplification with primers ([4]; K. pneumoniae Pit 100 (pI 7.6, SHV-2))
1 | imipenem/cilastatin | all signs of inflammation resolved |  |  |  |  |  | 
2 | TEM primers: primer pair C (SEQ ID NO:5) and D (SEQ ID NO:1) specific for the TEM genes (DNA 1 TCGGGGAAATGTGCG; DNA 2 TGCTTAATCAGTGAGGCACC; listed as DNA, chemistry not given here) |  | No | Yes | Yes | Yes | No | No
